We go through two compounds from patent publication US6211244A, “Calcium receptor-active compounds” (priority 1995, dated 2001).

Structures are written as SMILES.

For assay [1], the system named is HuPCaR 5.2 calcium receptor. The assay can be described thus: fluorescence ([Ca^2+ ]i) in HEK 293 cells transfected with Cep4B containing the HuPCaR 5.2 insert. The class given is cell-based, human. As to conditions: Ca^2+ 10 mM, Mg^2+ 20 mM; 37° C. How it is done:
Clonal cell lines that stably express the two human and the bovine calcium receptors have been isolated. Calcium receptor cDNAs were subcloned in two different, commercially available expression vectors; pMSG (obtained from Pharmacia) and Cep4B (obtained from Invitrogen). The first vector contains the selectable marker gene for xanthine-guanine phosphoribosyltransferase (gpt) allowing stably transfected cells to overcome the blockade of the purine biosynthetic pathway imposed by addition of 2 μg/ml aminopterin and 25 μg/ml mycophenolic acid. The second vector encodes a gene conferring resistance to the antibiotic hygromycin (used at 200 μg/ml). […]
Cells obtained from the pool of hygromycin selected HEK 293 cells transfected with Cep4B containing the HuPCaR 5.2 insert were plated on collagen coated Aklar squares which had been placed into individual wells of 12-well tissue culture plates. […] Measurements of fluorescence in response to calcium receptor agonists were performed at 37° C. in a spectrofluorimeter using excitation and emission wavelengths of 340 and 510 nm, respectively. For signal calibration, Fmax was determined after addition of ionomycin (40 μM) and the apparent Fmin was determined by addition of 0.3 M EGTA, 2.5 M Tris-HCl; pH 10.

The subject of another assay is calcium receptor. To be noted: cited from earlier work.
Assay [2] relates to human parathyroid cell calcium receptor. The assay can be described thus: stimulation of calcium-activated chloride currents in Xenopus oocytes injected with calcium receptor cRNA. The class given is cell-based. As to conditions: calcium-activated chloride current. On the procedure:
Representative cDNA inserts for both size classes were subcloned into the plasmid vector pBluescript SK. Linearization followed by in vitro transcription using T7 RNA polymerase produced cRNA transcripts. The cRNA transcripts were injected into Xenopus oocytes (150 ng/μl RNA; 50 nl/oocyte) for functional analysis. Following incubation periods of 2-4 days, the oocytes were assayed for the presence of functional calcium receptors. Both clone types gave rise to functional calcium receptors as assessed by the stimulation of calcium-activated chloride currents upon addition of appropriate calcium receptor agonists. […] Thus, both clones encode a functional, human parathyroid cell calcium receptor.
In addition, pHuPCaR4.0 encodes glutamine (Gln) at aa#925 and glycine (Gly) at position 990 whereas pHuPCaR5.2 encodes arg (Arg) at both equivalent positions. The human CaR gene encodes for Gln and Arg, respectively, at these positions. The difference between the pHuPCaR4.0 cDNA compared to human DNA appears to represent a true sequence polymorphism within the human population while the single base change in pHuPCaR5.2 probably reflects a mutation which occurred during its cloning. […] However, it is possible that these two receptor isoforms are functionally and/or pharmacologically distinct.

A further assay concerns the target T1, human calcium receptor (Homo sapiens, UniProt P41180, R990G).
T1 construct: expressed in transfected cells; host or cells: HEK 293
T1 sequence (P41180 20-1078 R990G): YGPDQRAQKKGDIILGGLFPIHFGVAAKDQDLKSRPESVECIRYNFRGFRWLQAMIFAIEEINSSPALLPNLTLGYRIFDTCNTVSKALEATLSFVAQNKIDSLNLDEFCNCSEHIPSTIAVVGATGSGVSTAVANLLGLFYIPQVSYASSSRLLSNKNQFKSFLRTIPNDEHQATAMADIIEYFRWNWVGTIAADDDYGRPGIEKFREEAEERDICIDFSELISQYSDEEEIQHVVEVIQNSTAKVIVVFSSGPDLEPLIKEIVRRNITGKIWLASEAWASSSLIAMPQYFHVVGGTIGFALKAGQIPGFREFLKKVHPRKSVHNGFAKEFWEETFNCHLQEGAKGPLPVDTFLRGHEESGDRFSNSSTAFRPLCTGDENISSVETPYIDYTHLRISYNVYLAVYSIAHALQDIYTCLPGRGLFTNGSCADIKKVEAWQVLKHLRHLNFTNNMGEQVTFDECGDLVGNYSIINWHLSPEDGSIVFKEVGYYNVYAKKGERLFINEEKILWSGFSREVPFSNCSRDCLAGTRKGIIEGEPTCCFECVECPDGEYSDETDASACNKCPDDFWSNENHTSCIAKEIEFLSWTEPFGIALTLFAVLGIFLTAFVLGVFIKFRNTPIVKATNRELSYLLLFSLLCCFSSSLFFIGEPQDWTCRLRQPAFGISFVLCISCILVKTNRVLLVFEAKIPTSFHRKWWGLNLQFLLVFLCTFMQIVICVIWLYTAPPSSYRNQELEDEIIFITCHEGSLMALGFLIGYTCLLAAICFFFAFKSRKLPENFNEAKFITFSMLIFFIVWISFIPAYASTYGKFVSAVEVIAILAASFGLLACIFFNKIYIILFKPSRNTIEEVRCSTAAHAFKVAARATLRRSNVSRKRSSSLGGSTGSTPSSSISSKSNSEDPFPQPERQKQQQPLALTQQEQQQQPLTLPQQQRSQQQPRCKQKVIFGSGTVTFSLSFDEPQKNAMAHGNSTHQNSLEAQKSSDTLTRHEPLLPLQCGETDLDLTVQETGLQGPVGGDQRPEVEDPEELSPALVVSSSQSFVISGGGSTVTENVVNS
Put plainly: increases in [Ca^2+ ]i in HEK-293 cells expressing the human calcium receptor (fura-2 loaded HEK 293/pHuPCaR4.0 cells), % activity. The class given is cell-based.

The test system of the next assay is human subjects. Put plainly: pharmacological activity in human subjects after oral doses. The class given is in vivo. To be noted: 10-400 mg oral doses. From the text:
Proper dosing can also be carried out using standard techniques. […] Thus, the glucuronide conjugate of 17Q may be exerting some beneficial effect.

In assay [3] the test system is Parathyroid Cell Calcium Receptor. The assay can be described thus: EC50 in parathyroid cells or HEK 293/pHuPCaR4.0 cells loaded with fura-2. The class given is cell-based, calves and humans. As to conditions: parathyroid cells or HEK 293/pHuPCaR4.0, fura-2; cell type not given per value. How it is done: This section describes procedures used to obtain parathyroid cells from calves and humans, and to use the parathyroid cells to measure calcium receptor activity.
Human parathyroid glands, were obtained from patients undergoing surgical removal of parathyroid tissue for primary or uremic hyperparathyroidism (uremic HPT), and were treated similarly to bovine tissue.
Glands were trimmed of excess fat and connective tissue and then minced with fine scissors into cubes approximately 2-3 mm on a side. Dissociated parathyroid cells were prepared by collagenase digestion and then purified by centrifugation in Percoll buffer.
Primary culture also has the advantage that cells can be labeled with isotopes to near isotopic equilibrium, as is necessary for studies involving measurements of inositol phosphate metabolism.
ITS+ is a premixed solution containing insulin, transferrin, selenium, and bovine serum albumin (BSA)-linolenic acid (Collaborative Research, Bedford, Mass.). The cells were then transferred to plastic flasks (75 or 150 cm^2; Falcon) and incubated overnight at 37° C. in a humid atmosphere of 5% CO2. No serum is added to these overnight cultures, since its presence allows the cells to attach to the plastic, undergo proliferation, and dedifferentiate.
The cells were then pelleted, resuspended in the same buffer, but lacking the ester, and incubated a further 15 minutes at 37° C. The cells were subsequently washed twice with PCB containing 0.5 mM CaCl2 and 0.5% BSA and maintained at room temperature (about 20° C.). Immediately before use, the cells were diluted five-fold with prewarmed 0.5 mM CaCl2 -PCB to obtain a final BSA concentration of 0.1%. The concentration of cells in the cuvette used for fluorescence recording was 1-2×10^6 /ml.
The fluorescence of indicator-loaded cells was measured at 37° C. in a spectrofluorimeter (Biomedical Instrumentation Group, University of Pennsylvania, Philadelphia, Pa.) equipped with a thermostated cuvette holder and magnetic stirrer using excitation and emission wavelengths of 340 and 510 nm, respectively. […] To correct the calibration for dye leakage, cells were placed in the cuvette and stirred at 37° C. for 2-3 minutes. The cell suspension was then removed, the cells pelleted, and the supernatant returned to a clean cuvette. […] This estimate was subtracted from the apparent Fmin.
HEK 293 cells transfected with pHuPCaR4.0 were loaded with fura-2 by incubating the cells in Dulbecco's modified Eagle's media buffered with 20 mM HEPES containing about 5 μM […] for one hour at room temperature. Cell were then rinsed with Hank's balanced salt solution buffered with 20 mM HEPES containing 1 mM CaCl2 and 1 mM MgCl2. Compounds to be tested were then added to the cells and fluorescence was measured (excitation and emission wavelengths of 340 and 510 nm, respectively).

For the compound `COc1cccc([C@@H](C)NCCCc2ccccc2)c1` [NPS R-467], in assay [1], the “increases in [Ca^2+ ]i” value is “Robust increases in [Ca^2+ ]i”. Besides, in the assay with calcium receptor, the “binding site on the calcium receptor” value was “binds to the calcium receptor at a different site (i.e., an allosteric site) than extracellular calcium”. In addition, in assay [2], the “activation of oocyte-expressed calcium receptor” value is on record as “activated the oocyte-expressed receptor at about the same concentrations known to be effective for the native parathyroid cell receptor”.

Take `COc1cccc([C@@H](C)NCCCc2ccccc2Cl)c1` [NPS R-568, reference compound]: the entries for the “% activity” value on human calcium receptor (33 ng/mL) and at human calcium receptor (330 ng/mL) were 69% and 95%, respectively. Besides, the “pharmacological activity in human subjects” value with human subjects is “showed pharmacological activity in human subjects”. Besides, the EC50 in assay [3] was found to be 600 nM. Besides, in assay [2], the “activation of oocyte-expressed calcium receptor” value was “activated the oocyte-expressed receptor at about the same concentrations known to be effective for the native parathyroid cell receptor”.
